According to patent US9340577B2, “HLA binding motifs and peptides and their uses” (priority 1992, dated 2016):
pIC50: −log10 of the molar value. No end group written: not given here.

Legend:
Test in all cases: biochemical
DRB1*1302 = DRB1*1302 (Homo sapiens, UniProt P01903+P01911, A100E/A169T/K41T/L162R/M171V/P40S/Q125H/Q178H/Q39Y/Q99D/R42S/S66N/T262R/V115G/W38E/Y61H); assay type: binding
DRB1*1101 = DRB1*1101 (Homo sapiens, UniProt P01903+P01911, A100R/A169T/A87E/I96F/K41T/L162R/M171V/P40S/Q125H/Q178H/Q39Y/Q99D/R42S/S66Y/T262R/V115G/W38E); details: Binding affinity DRB1 *1101
DRB1*1101, sequence (P01903 26-254 limits assumed, other chains not shown): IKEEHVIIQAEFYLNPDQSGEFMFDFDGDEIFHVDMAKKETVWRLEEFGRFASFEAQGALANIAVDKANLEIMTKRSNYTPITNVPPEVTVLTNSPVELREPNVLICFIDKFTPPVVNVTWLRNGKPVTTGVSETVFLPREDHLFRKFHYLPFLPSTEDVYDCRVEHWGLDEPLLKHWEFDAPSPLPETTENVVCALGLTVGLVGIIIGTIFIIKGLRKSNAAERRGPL

DRB3*0101 = DRB3*0101 (Homo sapiens, UniProt P01903+P79483); assay type: binding
DR1 (DRB1*0101) = DR1 (DRB1*0101) (Homo sapiens, UniProt P01903+P01911, A100R/D57E/F55L/F60I/F76Y/I96L/L162R/M171V/P40L/Q125E/R42F/V115G/Y59C); assay type: binding
DRB5*0101 = DRB5*0101 (Homo sapiens, UniProt P01903+Q30154); details: Binding affinity DRB5 *0101
DR7 (DRB1*0701) = DR7 (DRB1*0701) (Homo sapiens, UniProt P01903+P01911, A100R/A102G/A103Q/D57E/D86V/E43K/F76Y/K127E/L162R/M171V/P40G/Q125H/Q99D/R33Q/R42Y/R54Q/S133A/S66F/T210M/V115G/Y107V/Y59L/Y89S); assay type: binding
DRB1*1201 = DRB1*1201 (Homo sapiens, UniProt P01903+P01911, A100R/A169T/D57E/D86V/F55L/H45Y/K41T/L162R/M171V/P40S/Q125H/Q178H/Q39Y/Q99D/R42G/S66L/T262R/V114A/V67L/W38E/Y59H/Y61H/Y89S); assay type: binding
DRB1*0802 = DRB1*0802 (Homo sapiens, UniProt P01903+P01911, A100R/A103L/A169T/F76Y/H45Y/I96F/K41T/L162R/M171V/P40S/Q125H/Q178H/Q39Y/Q99D/R218S/R42G/S66Y/V115G/W38E); assay type: binding
DRB1*1501 = DRB1*1501 (Homo sapiens, UniProt P01903+P01911); assay type: binding
DRB1*0901 = DRB1*0901 (Homo sapiens, UniProt P01903+P01911, A100R/A103E/D57H/D86V/F55Y/F60I/F76Y/I96F/K127E/L162R/M171V/P40D/Q125H/Q99R/R33Q/R42F/S133A/S66N/T210M/V115G/W38K/Y107V/Y59G/Y89S); assay type: binding

DRB1*1302, sequence (P01903 26-254 limits assumed, other chains not shown): as above

Molecule | pIC50 (DRB1*1302) | pIC50 (DRB1*1101) | pIC50 (DRB3*0101) | pIC50 (DR1 (DRB1*0101)) | pIC50 (DRB5*0101) | pIC50 (DR7 (DRB1*0701)) | pIC50 (DRB1*1201) | pIC50 (DRB1*0802) | pIC50 (DRB1*1501) | pIC50 (DRB1*0901)
CC[C@H](C)[C@H](NC(=O)[C@@H]1CCCN1C(=O)[C@H](CC(=O)O)NC(=O)[C@@H](NC(=O)[C@@H]1CCCN1C(=O)[C@H](Cc1ccccc1)NC(=O)[C@@H](NC(=O)[C@H](CC(=O)O)NC(=O)[C@@H](NC(=O)[C@@H]1CCCN1C(=O)[C@H](CO)NC(=O)[C@@H](N)CCCNC(=N)N)[C@@H](C)CC)[C@@H](C)O)[C@@H](C)O)C(=O)N[C@@H](CCCCN)C(=O)N[C@@H](CCC(=O)O)C(=O)N[C@@H](CO)C(=O)O [Peptide 68.0026] | < 4.70 | < 4.70 | < 4.70 | < 4.70 | < 4.70 | < 4.70 | < 4.70 | < 4.70 |  | 
CC(C)C[C@H](NC(=O)[C@H](CCC(N)=O)NC(=O)[C@H](C)NC(=O)[C@H](CC(N)=O)NC(=O)[C@H](CCCCN)NC(=O)[C@@H](NC(=O)[C@H](CCCCN)NC(=O)[C@H](CC(N)=O)NC(=O)CN)C(C)C)C(=O)N[C@@H](C)C(=O)NCC(=O)N[C@@H](C)C(=O)N[C@@H](CCCCN)C(=O)NCC(=O)N[C@H](C(=O)O)C(C)C [Peptide 68.0097] | < 4.70 | < 4.70 | < 4.70 |  |  | < 4.70 | < 4.70 | < 4.70 | < 4.70 | 
CC[C@H](C)[C@H](N)C(=O)N[C@@H](Cc1ccc(O)cc1)C(=O)N[C@@H](CO)C(=O)N[C@H](C(=O)N[C@@H](CO)C(=O)N[C@@H](CCSC)C(=O)N[C@@H](CCCCN)C(=O)N[C@@H](Cc1c[nH]cn1)C(=O)N1CCC[C@H]1C(=O)N[C@@H](CCC(N)=O)C(=O)N[C@@H](CCC(=O)O)C(=O)N[C@@H](CCSC)C(=O)N[C@@H](CCCCN)C(=O)N[C@H](C(=O)N[C@@H](Cc1ccc(O)cc1)C(=O)O)[C@@H](C)O)[C@@H](C)CC [Peptide 68.0126] | < 4.70 |  | < 4.70 |  |  |  | 4.94 |  |  | 
CC[C@H](C)[C@H](NC(=O)[C@@H](NC(=O)[C@H](Cc1c[nH]cn1)NC(=O)[C@@H](N)CCCNC(=N)N)C(C)C)C(=O)N[C@@H](Cc1ccc(O)cc1)C(=O)N[C@@H](C)C(=O)N1CCC[C@H]1C(=O)N[C@@H](CO)C(=O)N[C@@H](CO)C(=O)N[C@@H](Cc1c[nH]cn1)C(=O)N[C@@H](CC(N)=O)C(=O)N[C@@H](CCCCN)C(=O)N[C@@H](Cc1ccc(O)cc1)C(=O)N[C@@H](C)C(=O)NCC(=O)O [Peptide 68.0133] |  |  | < 4.70 |  |  | < 4.70 | 5.15 |  |  | 
CC[C@H](C)[C@H](NC(=O)[C@@H](N)CCC(=O)O)C(=O)N[C@H](C(=O)N[C@@H](CC(C)C)C(=O)N[C@@H](Cc1c[nH]cn1)C(=O)N[C@@H](CC(C)C)C(=O)N[C@@H](CCC(=O)O)C(=O)N1CCC[C@H]1C(=O)N[C@@H](CCC(N)=O)C(=O)N[C@@H](CC(N)=O)C(=O)N[C@@H](CCC(=O)O)C(=O)N[C@@H](CC(C)C)C(=O)N[C@@H](CC(=O)O)C(=O)N1CCC[C@H]1C(=O)N[C@H](C(=O)O)C(C)C)C(C)C [Peptide 1543.20] |  | < 4.70 | < 4.70 |  | < 4.70 |  | < 4.70 | < 4.70 | < 4.70 | < 4.70
DFEVFFQRLGIASGR [Peptide 68.0114] |  |  | < 4.70 |  |  | < 4.70 | 5.70 |  |  | 
GNEIFNTSLFEPPPP [Peptide 68.0090] |  | < 4.70 | < 4.70 | < 4.70 | < 4.70 | < 4.70 | < 4.70 | < 4.70 | < 4.70 | 
PHPLYNMSLLKHQSL [Peptide 68.0007] |  |  | < 4.70 |  |  | < 4.70 | 6.07 |  |  | 
TNKFSGYPLYHSVYE [Peptide 68.0116] | < 4.70 | < 4.70 | < 4.70 |  |  | < 4.70 | 5.35 |  |  | 
VILLGRHSLFHPEDT [Peptide 68.0068] |  |  | < 4.70 |  |  | < 4.70 | 7.25 |  |  | 
YDPLYCESVHNFTLP [Peptide 68.0041] | < 4.70 | < 4.70 | < 4.70 |  | < 4.70 |  | < 4.70 | < 4.70 |  | 
